Values of other authors as cited in PubChem BioAssay AID1259409 (Chemical Carcinogenesis Research Information System (CCRIS), 2018).

Test system: rodent chemically induced tumor inhibition, incidence and multiplicity
Test: CCRIS tumor inhibitor studies
Conditions: Carcinogen: 2,2'-DIHYDROXY-DI-N-PROPYLNITROSAMINE, 13147-25-6, Carcinogen: 2,2'-DIHYDROXY-DI-N-PROPYLNITROSAMINE, 13147-25-6, Dose [Inhibitor]: 0, Route [Inhibitor]: ORAL, Species: RAT, Strain/Sex: F344/MALE, Promoter: NONE USED

Compound: CCCCCCCCCCCCCCCC(=O)CC(=O)CCCCCCCCCCCCCCC
- tumour outcome (control, treated, inhibition, significance) (36909-64-6, N-ETHYL-N-HYDROXYETHYL- NITROSAMINE, 3,2'DIMETHYL-4-A, 36909-64-6, N-ETHYL-N-HYDROXYETHYL- NITROSAMINE, 3,2'DIMETHYL-4-A, 0.2% IN DIET BEGINNING 1 WK POST LAST CARCINOGEN DOSE AND CONTINUING FOR 32 WK (STUDY DURATION: 36 WK), Target Tissue: Type of Lesion: URINARY BLADDER: CARCINOMA, Dose [Carcinogen]: 1000 MG/KG IP DHPN 2X, 1500 MG/KG GAV EHEN 2X AND 75 MG/KG SC DMAB 3X GIVEN OVER THE INITIAL 3 WK AT 3-4 D INTERVALS): 1/14 (7%), 1/15 (7%), 0%, not significant
- tumour outcome (control, treated, inhibition, significance) (53609-64-6, N-ETHYL-N-HYDROXYETHYL- NITROSAMINE, 3,2'-DIMETHYL-4-, 53609-64-6, N-ETHYL-N-HYDROXYETHYL- NITROSAMINE, 3,2'-DIMETHYL-4-, 0.2% IN DIET BEGINNING 1 WK POST LAST CARCINOGEN DOSE AND CONTINUING FOR 32 WK (STUDY DURATION: 36 WK), Target Tissue: Type of Lesion: LARGE INTESTINE: ADENOMA, Dose [Carcinogen]: 1000 MG/KG IP DHPN 2X, 1500 MG/KG GAV EHEN 2X AND 75 MG/KG SC DMAB 3X GIVEN OVER THE INITIAL 3 WK PERIOD AT 3-4 D INTERV): 7/14 (50%), 7,15 (47%), 6%, not calculated
- outcome (53609-64-6, N-ETHYL-N-HYDROXYETHYL- NITROSAMINE, 3,2'-DIMETHYL-4-, 53609-64-6, N-ETHYL-N-HYDROXYETHYL- NITROSAMINE, 3,2'-DIMETHYL-4-, 0.2% IN DIET BEGINNING 1 WK POST LAST CARCINOGEN DOSE AND CONTINUING FOR 32 WK (STUDY DURATION: 36 WK), Target Tissue: Type of Lesion: URINARY BLADDER: PAPILLOMA, Dose [Carcinogen]: 1000 MG/KG IP DHPN 2X, 1500 MG/KG GAV EHEN 2X AND 75 MG/KG SC DMAB 3X GIVEN OVER THE INITIAL 3 WK PERIOD AT 3-4 D INTERV): 0/14 (0%), 3/15 (20%), -100%, not calculated
- tumour outcome (control, treated, inhibition, significance) (53609-64-6, N-ETHYL-N-HYDROXYETHYL- NITROSAMINE, 3,2'-DIMETHYL-4-, 53609-64-6, N-ETHYL-N-HYDROXYETHYL- NITROSAMINE, 3,2'-DIMETHYL-4-, 02% IN DIET BEGINNING 1 WK POST LAST CARCINOGEN DOSE AND CONTINUING FOR 32 WK (STUDY DURATION: 36 WK), Target Tissue: Type of Lesion: LUNG: CARCINOMA, Dose [Carcinogen]: 1000 MG/KG IP DHPN 2X , 1500 MG/KG GAV EHEN 2X AND 75 MG/KG SC DMAB 3X GIVEN OVER THE INITIAL 3 WK PERIOD AT 3-4 D INTER): 1/14 (7%), 3/15 (20%), -186%, not calculated
- tumour outcome (control, treated, inhibition, significance) (53609-64-6, N-ETHYL-N-HYDROXYETHYL- NITROSAMINE, 3,2'DIMETHYL-4-A, 53609-64-6, N-ETHYL-N-HYDROXYETHYL- NITROSAMINE, 3,2'DIMETHYL-4-A, 0.2% IN DIET BEGINNING 1 WK POST LAST CARCINOGEN DOSE AND CONTINUING FOR 32 WK (STUDY DURATION: 36 WK), Target Tissue: Type of Lesion: LIVER: HEPATOCELLULAR CARCINOMA, Dose [Carcinogen]: 1000 MG/KG IP DHPN 2X, 1500 MG/KG GAV EHEN 2X AND 75 MG/KG SC DMAB 3X GIVEN OVER THE INITIAL 3 WK AT 3-4 D INTERVALS): 6/14 (43%), 1/15 (7%), 84%, p<0.05
- tumour outcome (control, treated, inhibition, significance) (53609-64-6, N-ETHYL-N-HYDROXYETHYLNITROSAMINE, 3,2'-DIMETHYL-1,4-, 53609-64-6, N-ETHYL-N-HYDROXYETHYLNITROSAMINE, 3,2'-DIMETHYL-1,4-, 0.2% IN DIET FOR 4 WK BEGINNING 1 D PRIOR TO FIRST CARCINOGEN DOSE (STUDY DURATION: 36 WK), Target Tissue: Type of Lesion: KIDNEY: ADENOMA, Dose [Carcinogen]: 1000 MG/KG BW DHPN TWICE, 1500 MG/KG EHEN TWICE, 75 MG/KG BW DMAB 3 TIMES, SEQUENTIALLY OVER 3 WK): 6/10 (60%), 7/13 (54%), 10%, not significant
- tumour outcome (control, treated, inhibition, significance) (53609-64-6, N-ETHYL-N-HYDROXYETHYLNITROSAMINE, 3,2'-DIMETHYL-1,4-, 53609-64-6, N-ETHYL-N-HYDROXYETHYLNITROSAMINE, 3,2'-DIMETHYL-1,4-, 0.2% IN DIET FOR 4 WK BEGINNING 1 D PRIOR TO FIRST CARCINOGEN DOSE (STUDY DURATION: 36 WK), Target Tissue: Type of Lesion: LUNG: ADENOMA, Dose [Carcinogen]: 1000 MG/KG BW DHPN TWICE, 1500 MG/KG EHEN TWICE, 75 MG/KG BW DMAB 3 TIMES, SEQUENTIALLY OVER 3 WK): 5/10 (50%), 6/13 (46%), 8%, not significant
- tumour outcome (control, treated, inhibition, significance) (53609-64-6, N-ETHYL-N-HYDROXYETHYLNITROSAMINE, 3,2'-DIMETHYL-4-AMINO-, 53609-64-6, N-ETHYL-N-HYDROXYETHYLNITROSAMINE, 3,2'-DIMETHYL-4-AMINO-, 0.2% IN DIET FOR 32 WK BEGINNING 1 WK POST CARCINOGEN TREATMENT (STUDY DURATION: 36 WK), Target Tissue: Type of Lesion: KIDNEY: ADENOMA, Dose [Carcinogen]: 1000 MG/KG BW DHPN TWICE, 1500 MG/KG BW EHEN TWICE, 75 MG/KG BW 3 TIMES ADMINISTERED OVER FIRST 3 WK): 6/14 (43%), 5/15 (33%), 23% , not significant
- tumour outcome (control, treated, inhibition, significance) (53609-64-6, N-ETHYL-N-HYDROXYETHYLNITROSAMINE, 3,2'-DIMETHYL-4-AMINO-, 53609-64-6, N-ETHYL-N-HYDROXYETHYLNITROSAMINE, 3,2'-DIMETHYL-4-AMINO-, 0.2% IN DIET FOR 32 WK BEGINNING 1 WK POST CARCINOGEN TREATMENT (STUDY DURATION: 36 WK), Target Tissue: Type of Lesion: KIDNEY: NEPHROBLASTOMA, Dose [Carcinogen]: 1000 MG/KG BW DHPN TWICE, 1500 MG/KG BW EHEN TWICE, 75 MG/KG BW 3 TIMES ADMINISTERED OVER FIRST 3 WK): 2/14 (14%), 2/15 (13%), 7%, not significant
- tumour outcome (control, treated, inhibition, significance) (53609-64-6, N-ETHYL-N-HYDROXYETHYLNITROSAMINE, 3,2'-DIMETHYL-4-AMINO-, 53609-64-6, N-ETHYL-N-HYDROXYETHYLNITROSAMINE, 3,2'-DIMETHYL-4-AMINO-, 0.2% IN DIET FOR 32 WK BEGINNING 1 WK POST CARCINOGEN TREATMENT (STUDY DURATION: 36 WK), Target Tissue: Type of Lesion: KIDNEY: TRANSITIONAL CELL CARCINOMA, Dose [Carcinogen]: 1000 MG/KG BW DHPN TWICE, 1500 MG/KG BW EHEN TWICE, 75 MG/KG BW 3 TIMES ADMINISTERED OVER FIRST 3 WK): 1/14 (7%), 1/15 (7%), 0%, not significant
